Assay results reported in patent US20110189280A1, “DOSAGE FORM COMPRISING 1-ISOPROPYL-4-HEXAHYDRO-1H-1,4-DIAZEPINE OR A SALT THEREOF” (priority 2008, published 2011).

Assay: Gravimetric vapour sorption (GVS) analysis, water sorption/desorption at different relative humidities
Type: physicochemical
Conditions: across the 0-90% relative humidity range at 25° C. under nitrogen

water reversibly adsorbed and/or absorbed, and/or desorbed (GVS) | water adsorbed and/or absorbed, and/or desorbed (GVS), compared with crystalline Form 1 mono-maleate (sample before purification by recrystallisation, data not shown) | Structure (SMILES)
approximately 0.4 % w/w | – | CC(C)N1CCCN(C(=O)c2ccc(OC3CCOCC3)cc2)CC1.O=C(O)/C=C\C(=O)O [Drug Preparation Example 3, 1-Isopropyl-4-{[4-(tetrahydro-2H-pyran-4-yloxy)phenyl]carbonyl}hexahydro-1H-1,4-diazepine mono-maleate salt (crystalline Form 1)]
– | higher quantities of water | CC(C)N1CCCN(C(=O)c2ccc(OC3CCOCC3)cc2)CC1.Cl [Drug Preparation Example 1 Part C, 1-isopropyl-4-{[4-(tetrahydro-2H-pyran-4-yloxy)phenyl]carbonyl}hexahydro-1H-1,4-diazepine hydrochloride]
